The results in this text go back to ChEMBL document CHEMBL1201862, “PubChem BioAssay data set” (2004).

Experiment in all cases: NCI-60 cell line screen, 48 h
Assay [1] deals with T47D.
In assay [2] the test system is HCC 2998.
For assay [3], the system named is 786-0.
Assay [4] deals with DU-145.
Assay [5] concerns K562.
Assay [6] concerns A498.
In assay [7] the test system is RPMI-8226.
Assay [8] relates to MDA-MB-435.
Assay [9] deals with TK-10.
For assay [10], the system named is Hs-578T.
The subject of assay [11] is SNB-75.
Assay [12] relates to NCI-H226.
Assay [13] deals with M14.
The test system of assay [14] is Malme-3M.
The subject of assay [15] is OVCAR-3.
Assay [16] deals with SR.
Assay [17] concerns HOP-92.
Assay [18] relates to DMS-273.

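Five compound concentrations were applied to cells in 96-well plates for 48 hours; endpoints were derived by simple linear interpolation of the resulting dose-response curve. Abbreviation: GI50, concentration required for 50% inhibition of growth.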 Calls of active or inactive are those of the source. Cut-off read from the data, not from the text of the source: active = GI50 up to about 1.1 µM and inactive = higher.

`Cc1nc(Cl)c(C)c(Cl)n1`: the GI50 in [1] was > 100 µM (inactive); in assay [2], 99.1 µM (inactive); in [3] it was > 100 µM (inactive); in [4], > 100 µM (inactive); in assay [5] it was 18.3 µM (inactive); in assay [6], > 100 µM (inactive). The GI50 in [7] was > 100 µM (inactive); in [8], 33.3 µM (inactive); in assay [9], > 100 µM (inactive); in assay [10], > 75.2 µM (inactive); in assay [11] it was > 100 µM (inactive); in [12], > 100 µM (inactive). Further, the GI50 in assay [13] was 37.7 µM (inactive); in assay [14], > 100 µM (inactive); in assay [15], > 100 µM (inactive); in assay [16], 0.254 µM (active).
In the case of `COc1ccc(-c2cc(O)c3c(C)ccnc3n2)cc1`, the GI50 in [1] was 7.43 µM (inactive); in assay [2], 22.5 µM (inactive); in assay [4], 28.8 µM (inactive); in assay [5], 3.85 µM (inactive); in assay [6], 14.3 µM (inactive); in assay [7], 9.31 µM (inactive). The GI50 in assay [9] was 41.1 µM (inactive); in [10], 23.8 µM (inactive); in assay [12] it was 33.5 µM (inactive); in assay [13], 10.8 µM (inactive); in [14] it was 10.8 µM (inactive).
Turning to `Cc1c(C)c2ccc(OCC(O)COC(C)C)c(C)c2oc1=O` (stereo unspecified), the GI50 in [1] is > 100 µM (inactive); in assay [2] it was 24.8 µM (inactive); in [17], 33.2 µM (inactive); in assay [3] it was > 10 µM (inactive); in assay [4] it was > 100 µM (inactive); in [5], 25.4 µM (inactive). Besides, the GI50 is 21.4 µM (inactive) in assay [7]; 25.1 µM (inactive) in [9]; 31.7 µM (inactive) in [10]; 20.8 µM (inactive) in [13]; 16.2 µM (inactive) in assay [14]; > 100 µM (inactive) in assay [15]. Besides, the GI50 in assay [16] is 26.7 µM (inactive).
`CC(=O)OC1COC(N2c3ccccc3[C@@H]3CCc4c([nH]c5ccccc45)[C@@H]32)C(OC(C)=O)C1OC(C)=O.CC(=O)OC1COC(N2c3ccccc3[C@H]3CCc4c([nH]c5ccccc45)[C@H]32)C(OC(C)=O)C1OC(C)=O` (stereo partly specified): the GI50 is 40.1 µM (inactive) in assay [2]; 57.7 µM (inactive) in assay [17]; > 100 µM (inactive) in assay [4]; 17.7 µM (inactive) in [6]; 12 µM (inactive) in assay [7]; 51.8 µM (inactive) in assay [8]. The GI50 was > 100 µM (inactive) in assay [9]; 21.4 µM (inactive) in assay [10]; 11.4 µM (inactive) in assay [11]; 42.6 µM (inactive) in assay [13]; > 100 µM (inactive) in assay [14]; 26.1 µM (inactive) in [15]. Moreover, the GI50 in assay [16] is 11.6 µM (inactive).
Regarding `O=C1CCC(=O)C1=NNc1ccccc1`, the GI50 in [2] was > 100 µM (inactive); in assay [17], > 100 µM (inactive); in [3] it was > 100 µM (inactive); in assay [5], > 100 µM (inactive); in assay [6] it was 43.6 µM (inactive); in assay [9], > 100 µM (inactive). For the same compound, the GI50 in assay [11], in assay [12], in assay [13], in assay [18], in assay [14] and in assay [15] was > 100 µM (inactive) each time.
For the compound `CCOC(=O)NC(Nc1ncccn1)(C(F)(F)F)C(F)(F)F`, the GI50 in assay [1], in assay [2], in assay [4], in assay [5], in assay [6] and in [7] was > 100 µM (inactive) in each case. For the same compound, the GI50 in [8], in assay [9], in assay [10], in assay [11], in [12] and in assay [13] was > 100 µM (inactive) throughout. Further, the GI50 in [14], in assay [15] and in assay [16] was > 100 µM (inactive) each time.
Consider `CCOc1ncn(-c2ccc(NC(=S)Nc3ncccn3)cc2)n1`, for which the GI50 in assay [1] is 21.7 µM (inactive); in [2], 25.9 µM (inactive); in assay [17], 33.5 µM (inactive); in assay [4], 66.8 µM (inactive); in [5], 25.8 µM (inactive); in assay [7], 10.6 µM (inactive). Moreover, the GI50 is 56.1 µM (inactive) in assay [8]; 41.3 µM (inactive) in [9]; 12.1 µM (inactive) in [11]; 31.5 µM (inactive) in assay [13]; 37.7 µM (inactive) in assay [15]; 24 µM (inactive) in [16].
Take `Fc1nc(Sc2ncnc3nc[nH]c23)nc(-c2c3ccccc3c3sc4ccccc4n23)n1`: the GI50 in assay [1], in assay [2], in assay [17], in assay [3], in assay [4] and in assay [5] was > 100 µM (inactive) throughout. In addition, the GI50 in [6], in [7], in assay [8], in assay [9], in assay [10] and in assay [11] was > 100 µM (inactive) in each case. In addition, the GI50 was > 100 µM (inactive) in [12], 43.3 µM (inactive) in assay [13], > 100 µM (inactive) in [14] and > 100 µM (inactive) in [15].
As to `CCN1c2ccccc2-n2c(C)nnc2-c2c(-c3ccccc3)n[nH]c21`, the GI50 was 14.7 µM (inactive) in [1]; 50.7 µM (inactive) in assay [17]; 36.1 µM (inactive) in assay [4]; 4.83 µM (inactive) in [5]; 14.8 µM (inactive) in assay [7]; 16.2 µM (inactive) in assay [8]. Moreover, the GI50 in assay [9] is 41.4 µM (inactive); in assay [10], 46.1 µM (inactive); in [11], 67 µM (inactive); in assay [13], 26.4 µM (inactive); in [15], 36.4 µM (inactive); in assay [16], 13 µM (inactive).
In the case of `CC(=O)c1c(-c2ccco2)c(C#N)c(=S)n(C2OC(CO)C(O)C(O)C2O)c1-c1ccccc1` (stereo unspecified), the GI50 in assay [1] is 29.4 µM (inactive); in [4] it was 87.3 µM (inactive); in [5], 58.9 µM (inactive); in [7], > 100 µM (inactive); in [8], 29.2 µM (inactive); in assay [9], > 100 µM (inactive). The GI50 in assay [10] was 61.8 µM (inactive); in [11], 69.7 µM (inactive); in [13], 40.5 µM (inactive); in assay [14], 63.2 µM (inactive); in assay [15], > 100 µM (inactive); in assay [16], 68.7 µM (inactive).
As for `O=C1O/C(=C\c2ccc(O)c(Br)c2)C(c2ccc(O)c(Cl)c2)=C1Br`, the GI50 in assay [1] was 19 µM (inactive); in assay [2], 3.65 µM (inactive); in [17], 15.4 µM (inactive); in assay [3], 16.3 µM (inactive); in assay [4] it was 18.8 µM (inactive); in [5], 17.3 µM (inactive). Also, the GI50 was 19.5 µM (inactive) in assay [6]; 13.2 µM (inactive) in assay [7]; 16 µM (inactive) in [8]; 25.2 µM (inactive) in assay [9]; 15.7 µM (inactive) in assay [10]; 17.8 µM (inactive) in assay [13]. The values for the GI50 in assay [14], in assay [15] and in assay [16] were 17.9 µM (inactive), 17.8 µM (inactive) and 5.86 µM (inactive), respectively.
Take `CCOC(=O)CCN1C(=O)c2c(NC(=O)C(=O)O)cccc2S1(=O)=O`: the GI50 in [1], in assay [2], in assay [17], in assay [3], in [4] and in assay [5] was > 100 µM (inactive) throughout. For the same compound, the GI50 in [6], in [7], in [8], in assay [9], in assay [10] and in [12] was > 100 µM (inactive) each time. The GI50 in [13], in assay [14] and in assay [16] was > 100 µM (inactive) each time.
`CC(C)c1ccc(/C=C2\CSCC3=C2N=C2SCC(=O)N2C3c2ccc(C(C)C)cc2)cc1` (stereo unspecified): the GI50 in assay [1] was 57.9 µM (inactive); in [2] it was > 100 µM (inactive); in [17], > 100 µM (inactive); in assay [3], > 100 µM (inactive); in assay [4], > 100 µM (inactive); in [5], > 100 µM (inactive). Besides, the GI50 in [7] is 80.7 µM (inactive); in assay [8], > 100 µM (inactive); in assay [9], > 100 µM (inactive); in assay [10], > 100 µM (inactive); in assay [11] it was > 100 µM (inactive); in assay [12] it was > 100 µM (inactive). Besides, the GI50 is > 100 µM (inactive) in assay [13], 96.4 µM (inactive) in assay [14], > 100 µM (inactive) in assay [15] and 77.4 µM (inactive) in assay [16].
On to `CCc1c(-c2ccc(OC)cc2)oc(OC)c(C)c1=O`, for which the GI50 in assay [1] is 45 µM (inactive); in [2] it was > 100 µM (inactive); in [17] it was 97.1 µM (inactive); in [3], > 100 µM (inactive); in assay [4], > 100 µM (inactive); in assay [5] it was 34.2 µM (inactive). In addition, the GI50 in assay [6] was 68.9 µM (inactive); in assay [8], > 100 µM (inactive); in [9] it was > 100 µM (inactive); in [10], > 100 µM (inactive); in assay [11] it was 33.2 µM (inactive); in assay [13], > 100 µM (inactive). For the same compound, in assay [15], the GI50 is 62.8 µM (inactive).
